Test results published in ChEMBL document CHEMBL2074426 (Mol Pharmacol, 2001).

Experiments:
Format in all cases: functional, cell-based
[1] = biological target: ATP-dependent translocase ABCB1 (Mus musculus, UniProt P21447); assay: TP_TRANSPORTER: transepithelial transport (basal to apical) in mdr1a-expressing LLC-PK1 cell; settings: pig
[2] = biological target: ATP-dependent translocase ABCB1 (Mus musculus, UniProt P06795); assay: TP_TRANSPORTER: transepithelial transport (basal to apical) in mdr1b-expressing LLC-PK1 cell
[3] = biological target: ATP-dependent translocase ABCB1 (Homo sapiens, UniProt P08183); assay: TP_TRANSPORTER: transepithelial transport (basal to apical) in MDR1-expressing LLC-PK1 cells; settings: pig
Sequence of ATP-dependent translocase ABCB1 (Homo sapiens, UniProt P08183) (P08183 whole entry): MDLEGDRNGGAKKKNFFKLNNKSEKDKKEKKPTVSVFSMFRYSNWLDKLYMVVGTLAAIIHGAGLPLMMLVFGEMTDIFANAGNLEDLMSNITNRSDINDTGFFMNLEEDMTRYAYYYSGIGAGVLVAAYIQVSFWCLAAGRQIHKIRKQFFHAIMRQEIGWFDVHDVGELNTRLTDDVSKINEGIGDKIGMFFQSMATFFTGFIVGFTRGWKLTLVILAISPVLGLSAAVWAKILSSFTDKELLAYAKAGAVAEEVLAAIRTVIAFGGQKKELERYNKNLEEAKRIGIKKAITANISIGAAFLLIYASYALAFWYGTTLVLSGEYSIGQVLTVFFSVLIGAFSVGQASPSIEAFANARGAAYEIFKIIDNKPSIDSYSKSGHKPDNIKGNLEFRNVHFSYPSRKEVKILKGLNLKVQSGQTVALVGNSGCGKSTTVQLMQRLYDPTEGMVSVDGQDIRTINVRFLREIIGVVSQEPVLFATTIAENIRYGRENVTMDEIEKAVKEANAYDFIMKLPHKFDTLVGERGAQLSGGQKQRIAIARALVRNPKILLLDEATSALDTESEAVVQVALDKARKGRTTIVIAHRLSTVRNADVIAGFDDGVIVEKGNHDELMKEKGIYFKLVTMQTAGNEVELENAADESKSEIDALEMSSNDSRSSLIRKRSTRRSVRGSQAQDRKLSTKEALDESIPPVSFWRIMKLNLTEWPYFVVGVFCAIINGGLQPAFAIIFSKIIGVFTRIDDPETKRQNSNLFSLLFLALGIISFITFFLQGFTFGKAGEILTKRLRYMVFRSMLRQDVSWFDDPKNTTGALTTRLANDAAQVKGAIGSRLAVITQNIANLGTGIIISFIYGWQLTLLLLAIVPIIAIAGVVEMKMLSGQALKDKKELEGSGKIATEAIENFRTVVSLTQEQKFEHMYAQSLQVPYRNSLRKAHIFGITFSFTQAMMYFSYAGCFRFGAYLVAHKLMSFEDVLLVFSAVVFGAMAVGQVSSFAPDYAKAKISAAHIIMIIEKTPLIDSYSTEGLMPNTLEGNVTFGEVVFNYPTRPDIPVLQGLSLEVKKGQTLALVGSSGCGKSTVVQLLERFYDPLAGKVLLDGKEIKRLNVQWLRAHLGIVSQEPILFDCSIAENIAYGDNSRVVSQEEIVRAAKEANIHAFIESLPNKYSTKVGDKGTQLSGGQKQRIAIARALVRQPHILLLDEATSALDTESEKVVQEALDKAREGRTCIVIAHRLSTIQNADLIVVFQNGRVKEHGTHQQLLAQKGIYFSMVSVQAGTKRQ

Sequence of ATP-dependent translocase ABCB1 (Mus musculus, UniProt P06795) (P06795 whole entry): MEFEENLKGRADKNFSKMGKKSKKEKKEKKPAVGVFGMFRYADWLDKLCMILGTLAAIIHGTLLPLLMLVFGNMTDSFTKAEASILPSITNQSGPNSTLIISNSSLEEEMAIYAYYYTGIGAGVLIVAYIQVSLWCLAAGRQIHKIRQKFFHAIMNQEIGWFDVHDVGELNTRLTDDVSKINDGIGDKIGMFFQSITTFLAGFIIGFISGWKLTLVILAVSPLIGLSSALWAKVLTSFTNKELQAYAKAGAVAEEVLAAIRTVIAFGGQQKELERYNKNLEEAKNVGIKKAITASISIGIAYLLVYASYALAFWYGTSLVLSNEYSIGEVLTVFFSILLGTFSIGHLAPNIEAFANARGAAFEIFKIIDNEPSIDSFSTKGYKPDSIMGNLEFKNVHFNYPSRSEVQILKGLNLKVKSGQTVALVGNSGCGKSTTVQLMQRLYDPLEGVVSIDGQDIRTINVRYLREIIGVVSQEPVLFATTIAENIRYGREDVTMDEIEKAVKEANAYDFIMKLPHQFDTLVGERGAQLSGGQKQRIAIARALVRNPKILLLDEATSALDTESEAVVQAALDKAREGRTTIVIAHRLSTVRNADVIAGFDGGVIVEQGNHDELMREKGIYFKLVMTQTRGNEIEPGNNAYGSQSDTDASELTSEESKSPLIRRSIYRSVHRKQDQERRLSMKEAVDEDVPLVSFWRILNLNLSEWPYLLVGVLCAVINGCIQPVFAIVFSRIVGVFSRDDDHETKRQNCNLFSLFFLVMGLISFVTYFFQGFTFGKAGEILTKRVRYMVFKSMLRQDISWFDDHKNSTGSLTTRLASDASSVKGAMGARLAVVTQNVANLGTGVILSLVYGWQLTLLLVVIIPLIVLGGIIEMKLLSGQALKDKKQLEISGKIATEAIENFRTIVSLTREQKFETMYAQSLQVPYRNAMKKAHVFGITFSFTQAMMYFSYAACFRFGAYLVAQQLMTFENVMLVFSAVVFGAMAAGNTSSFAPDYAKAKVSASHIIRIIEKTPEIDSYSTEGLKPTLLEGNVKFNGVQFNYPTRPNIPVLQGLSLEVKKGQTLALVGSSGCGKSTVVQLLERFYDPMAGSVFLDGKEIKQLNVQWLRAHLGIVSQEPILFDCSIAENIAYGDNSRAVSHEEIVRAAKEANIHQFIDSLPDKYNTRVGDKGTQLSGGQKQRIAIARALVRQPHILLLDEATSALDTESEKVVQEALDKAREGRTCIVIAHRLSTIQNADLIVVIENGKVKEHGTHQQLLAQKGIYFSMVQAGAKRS
Sequence of ATP-dependent translocase ABCB1 (Mus musculus, UniProt P21447) (P21447 whole entry): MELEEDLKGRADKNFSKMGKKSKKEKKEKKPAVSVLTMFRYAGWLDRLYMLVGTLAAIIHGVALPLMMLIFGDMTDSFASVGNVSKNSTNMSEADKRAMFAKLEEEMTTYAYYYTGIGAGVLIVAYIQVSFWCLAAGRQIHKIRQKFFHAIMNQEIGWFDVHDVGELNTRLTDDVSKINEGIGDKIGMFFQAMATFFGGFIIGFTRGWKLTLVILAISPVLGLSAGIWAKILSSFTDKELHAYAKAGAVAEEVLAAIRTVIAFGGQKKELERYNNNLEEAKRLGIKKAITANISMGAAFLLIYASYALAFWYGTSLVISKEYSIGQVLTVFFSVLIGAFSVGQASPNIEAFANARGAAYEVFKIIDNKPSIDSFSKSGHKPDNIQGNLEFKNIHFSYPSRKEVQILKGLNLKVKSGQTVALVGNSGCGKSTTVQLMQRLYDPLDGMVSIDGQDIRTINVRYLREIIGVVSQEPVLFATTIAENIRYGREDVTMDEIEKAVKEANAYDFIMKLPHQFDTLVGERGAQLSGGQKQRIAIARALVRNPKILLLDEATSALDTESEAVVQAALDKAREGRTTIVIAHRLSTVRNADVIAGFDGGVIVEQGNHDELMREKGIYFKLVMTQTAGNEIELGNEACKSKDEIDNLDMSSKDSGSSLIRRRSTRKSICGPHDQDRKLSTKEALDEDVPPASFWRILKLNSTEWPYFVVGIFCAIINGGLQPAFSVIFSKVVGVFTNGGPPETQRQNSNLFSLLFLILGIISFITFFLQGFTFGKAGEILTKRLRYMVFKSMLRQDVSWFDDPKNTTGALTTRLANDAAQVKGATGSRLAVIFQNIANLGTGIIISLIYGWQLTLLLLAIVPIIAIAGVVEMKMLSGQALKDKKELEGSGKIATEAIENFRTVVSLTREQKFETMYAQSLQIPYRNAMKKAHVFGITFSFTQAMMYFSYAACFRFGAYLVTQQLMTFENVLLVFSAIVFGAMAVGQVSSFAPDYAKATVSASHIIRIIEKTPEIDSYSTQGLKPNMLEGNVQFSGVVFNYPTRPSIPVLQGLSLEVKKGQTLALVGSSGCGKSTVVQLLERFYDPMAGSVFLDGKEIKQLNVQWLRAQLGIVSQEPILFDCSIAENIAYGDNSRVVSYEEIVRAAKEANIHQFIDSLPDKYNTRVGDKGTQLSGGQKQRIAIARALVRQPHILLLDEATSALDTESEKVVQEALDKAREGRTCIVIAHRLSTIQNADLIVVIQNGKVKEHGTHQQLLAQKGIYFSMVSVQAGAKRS

- Activity [1]: substrate [+]
- Activity [2]: substrate [+]
- Activity [3]: substrate [+]
Compound: CC(C)(C)NC(=O)[C@@H]1C[C@@H]2CCCC[C@@H]2CN1C[C@@H](O)[C@H](Cc1ccccc1)NC(=O)[C@H](CC(N)=O)NC(=O)c1ccc2ccccc2n1
